Experimental data published in ChEMBL document CHEMBL5352472, “Mode of action of p-quinone derivatives with trypanocidal activity studied by experimental and in silico models” (Eur J Med Chem, 2023).

Assays:
Trypanosoma brucei [1] = experiment: Trypanocidal activity against blood stream form Trypanosoma brucei 427 expressing red-shifted luciferase gene measured after 24 hrs by microplate luminometer analysis; assay type: functional, organism-based; details: Trypanosoma brucei, 427, 24 h
[2] = Cytotoxicity against mouse J774 cells after 24 hrs by WST-1 assay; assay type: toxicity, cell-based
[3] = Selectivity index, ratio of CC50 for cytotoxicity against mouse J774 cells to EC50 for trypanocidal activity against blood stream form Trypanosoma brucei 427; assay type: toxicity, cell-based; details: read-out: Ratio CC50/EC50
Trypanosoma brucei [4] = experiment: (§1) Redox activity against blood stream form Trypanosoma brucei 427 expressing redox-sensitive green fluorescent protein fused human glutaredoxin assessed as biosensor oxidation by measuring fluorescence at 2 times EC50 incubated for 1 hr by propidium iodide staining based flow cytometric analysis relative to control; assay type: functional
Trypanosoma cruzi [5] = experiment: Trypanocidal activity against Trypanosoma cruzi DM28c amastigotes expressing red-shifted luciferase gene infected in african green monkey Vero cells incubated for 72 hrs by microplate luminometer analysis; assay type: functional, organism-based
[6] = Selectivity index, ratio of CC50 for cytotoxicity against mouse J774 cells to EC50 for trypanocidal activity against Trypanosoma cruzi DM28c amastigotes; assay type: toxicity, cell-based; details: read-out: Ratio CC50/EC50
Leishmania infantum [7] = experiment: Antileishmanial activity against Leishmania infantum MHOM/MA/67/ITMAP263 promastigotes expressing red-shifted luciferase gene infected in mouse J774 cells incubated at 20 uM for 24 hrs by microplate luminometer analysis relative to control; assay type: functional
J774 [8] = experiment: Cytotoxicity against mouse J774 cells at 10 uM after 24 hrs by WST-1 assay relative to control; assay type: toxicity, cell-based; details: j774, 24 h
J774 [9] = experiment: Cytotoxicity against mouse J774 cells at 50 uM after 24 hrs by WST-1 assay relative to control; assay type: toxicity, cell-based; details: j774, 24 h
Trypanosoma cruzi [10] = experiment: Trypanocidal activity against Trypanosoma cruzi DM28c amastigotes expressing red-shifted luciferase gene infected in african green monkey Vero cells incubated at 10 uM for 72 hrs by microplate luminometer analysis relative to control; assay type: functional
Leishmania infantum [11] = experiment: Antileishmanial activity against Leishmania infantum MHOM/MA/67/ITMAP263 promastigotes expressing red-shifted luciferase gene infected in mouse J774 cells incubated at 10 uM for 24 hrs by microplate luminometer analysis relative to control; assay type: functional
Leishmania infantum [12] = experiment: Antileishmanial activity against Leishmania infantum MHOM/MA/67/ITMAP263 promastigotes expressing red-shifted luciferase gene infected in mouse J774 cells incubated for 24 hrs by microplate luminometer analysis; assay type: functional, organism-based; details: MHOM/MA/67/ITMAP263, J774, 24 h
[13] = Selectivity index, ratio of CC50 for cytotoxicity against mouse J774 cells to EC50 for trypanocidal activity against Leishmania infantum MHOM/MA/67/ITMAP263 promastigotes; assay type: toxicity, cell-based; details: read-out: Ratio CC50/EC50
Trypanosoma brucei [14] = experiment: as §1, with “at 1” for “at 2”; assay type: functional

Row | Compound | EC50 (Trypanosoma brucei [1]) [µM] | CC50 at 24 h [2] [µM] | selectivity ratio [3] | Activity (Trypanosoma brucei [4]) [%] | EC50 (Trypanosoma cruzi [5]) [µM] | selectivity ratio [6] | Activity (Leishmania infantum [7]) [%] | Activity (J774 [8]) [%] | Activity (J774 [9]) [%] | Activity (Trypanosoma cruzi [10]) [%] | Activity (Leishmania infantum [11]) [%] | EC50 (Leishmania infantum [12]) [µM] | selectivity ratio [13] | Activity (Trypanosoma brucei [14]) [%]
1 | O=C1C=C(Oc2ccccc2)C(=O)c2oc(-c3ccccc3)nc21 | 3.3 | 46 | 14 | 94.92 | – | – | – | – | – | – | – | – | – | –
2 | CC1CS(=O)(=O)CCN1/N=C/c1ccc([N+](=O)[O-])o1 (stereo not given) [NIFURTIMOX] | 5.3 | 100 | 19 | – | 0.7 | 142 | 137 | – | – | – | – | – | – | –
3 | O=C1C=CC(=O)c2oc(-c3ccccc3)nc21 | 2.3 | < 10 | < 4 | 100 | – | – | – | 21 | – | – | – | – | – | –
4 | COc1ccc2cc(OC3=CC(=O)c4ccccc4C3=O)ccc2c1 | 5.2 | ~50 | ~10 | 59.07 | – | – | – | – | 57 | – | – | – | – | –
5 | O=C1C=CC(=O)c2oc(-c3ccccc3)cc21 | 2.7 | 118 | 44 | 95.33 | – | – | – | – | – | 88 | 129 | – | – | –
6 | O=C1C=C(Oc2ccc(F)cc2)C(=O)c2sc(-c3ccccc3)nc21 | 5 | < 10 | < 2 | 92.06 | – | – | – | 5 | – | – | – | – | – | –
7 | O=C1C=C(Oc2ccc3cc(O)ccc3c2)C(=O)c2ccccc21 | 4.3 | ~50 | ~14 | 40.54 | – | – | – | – | 63 | – | – | – | – | –
8 | C[C@@H]1[C@H](O)[C@@H](C)/C=C/C=C/C=C/C=C/C=C/C=C/C=C/[C@H](O[C@@H]2O[C@H](C)[C@@H](O)[C@H](N)[C@@H]2O)C[C@@H]2O[C@](O)(C[C@@H](O)C[C@@H](O)[C@H](O)CC[C@@H](O)C[C@@H](O)CC(=O)O[C@H]1C)C[C@H](O)[C@H]2C(=O)O [AMPHOTERICIN B] | – | 9 | – | – | – | – | – | – | – | – | – | 0.035 | 257 | –
9 | O=C1C(Nc2ccccc2)=C(Br)C(=O)c2oc(-c3ccccc3)cc21 | 0.9 | 57 | 63 | – | 0.8 | 71 | – | – | – | – | 102 | – | – | 71.31
10 | O=C1C(Nc2ccccc2)=C(Br)C(=O)c2sc(-c3ccccc3)nc21 | 0.5 | < 10 | < 22 | 85.67 | – | – | – | 117 | – | – | – | – | – | –
11 | O=C1C=C(Br)C(=O)c2oc(-c3ccccc3)nc21 | 1.6 | < 10 | < 6 | 20.95 | – | – | – | 10 | – | – | – | – | – | –
12 | O=C1C=C(Br)C(=O)c2sc(-c3ccccc3)nc21 | 1.5 | 61 | 40 | 96.99 | – | – | 91 | – | – | 78 | – | – | – | –
13 | O=C1C=C(Br)C(=O)c2oc(-c3ccccc3)cc21 | 38 | 59 | 2 | – | – | – | – | – | – | – | – | – | – | 99.25
14 | O=C1C=C(Oc2ccccc2)C(=O)c2sc(-c3ccccc3)nc21 | 1.8 | < 10 | < 6 | – | – | – | – | 40 | – | – | – | – | – | 95.51
15 | O=C1C=C(Oc2ccc3cccnc3c2)C(=O)c2ccccc21 | 3.8 | < 50 | < 13 | 7.92 | – | – | – | – | 37 | – | – | – | – | –
16 | O=C1C=C(Oc2ccc(CO)cc2)C(=O)c2ccccc21 | 4.6 | ~50 | ~11 | 87.33 | – | – | – | – | 49 | – | – | – | – | –
17 | CCCCCCCCCCCCCCCCOP(=O)([O-])OCC[N+](C)(C)C [MILTEFOSINE] | – | 50 | – | – | – | – | – | – | – | – | – | 38.2 | ~1 | –
18 | CC(C)(C)c1ccc(OC2=CC(=O)c3ccccc3C2=O)cc1 | 5.5 | < 50 | < 9 | – | – | – | – | – | 24 | – | – | – | – | 81.7
19 | O=C1C=C(Oc2ccccc2)C(=O)c2oc(-c3ccccc3)cc21 | 2.9 | 37 | 13 | – | – | – | – | – | – | – | – | – | – | 85.4
20 | O=C1C(Nc2ccccc2)=C(Br)C(=O)c2oc(-c3ccccc3)nc21 | 1.9 | < 10 | < 5 | 95.87 | – | – | – | 0.5 | – | – | – | – | – | –
21 | O=C1C=CC(=O)c2sc(-c3ccccc3)nc21 | 1.3 | < 10 | < 8 | 99.42 | – | – | – | 0 | – | – | – | – | – | –
22 | COc1ccc(OC2=CC(=O)c3nc(-c4ccccc4)sc3C2=O)cc1 | 1.8 | 78 | 43 | 89.22 | 1.1 | 71 | 90 | – | – | – | – | – | – | –
